# Laboratory results as given in ChEMBL document CHEMBL1146156, “Fish venom (Pterios volitans) peptide reduces tumor burden and ameliorates oxidative stress in Ehrlich's ascites carcinoma xenografted mice” (2006).
# Tests used:
# Format in all cases: functional
# [1] = system: Mus musculus; test: Effect on hydroperoxide levels in liver of Ehrlich's ascites carcinoma xenografted Swiss Albino mouse at 20 mg/kg measured per 100 g tissue
# [2] = system: Mus musculus; test: Decrease in body weight of Ehrlich's ascites carcinoma xenografted Swiss albino mouse at 20 mg/kg
# [3] = system: Mus musculus; test: Increase in life span of Ehrlich's ascites carcinoma xenografted Swiss Albino mouse at 20 mg/kg
# [4] = system: Mus musculus; test: Increase in liver SOD activity of Ehrlich's ascites carcinoma xenografted Swiss Albino mouse at 20 mg/kg
# [5] = system: Mus musculus; test: Increase in mean survival time of Ehrlich's ascites carcinoma xenografted Swiss Albino mouse at 20 mg/kg
# [6] = system: Mus musculus; test: Effect on TBARS levels in liver of Ehrlich's ascites carcinoma xenografted Swiss Albino mouse at 20 mg/kg measured per 100 g tissue
# [7] = system: Mus musculus; test: Increase in liver glutathione peroxidase activity of Ehrlich's ascites carcinoma xenografted Swiss Albino mouse at 20 mg/kg
# [8] = system: Mus musculus; test: Increase in liver catalase activity of Ehrlich's ascites carcinoma xenografted Swiss Albino mouse at 20 mg/kg
# [9] = system: Mus musculus; test: Effect on GSH content in liver of Ehrlich's ascites carcinoma xenografted Swiss Albino mouse at 20 mg/kg measured per 100 g tissue
# [10] = system: Mus musculus; test: Increase in liver GST activity of Ehrlich's ascites carcinoma xenografted Swiss Albino mouse at 20 mg/kg
structure (smiles),measurement,setting,value
O=c1[nH]cc(F)c(=O)[nH]1 [FLUOROURACIL],Activity,[1],0.85 mmol
same,Activity,[2],25.2 g
same,Activity,[3],119.49%
same,Activity,[4],3.96 U/mg
same,MST,[5],39.5 days
same,Activity,[6],0.99 mmol
same,Activity,[7],6.97 U/mg
same,Activity,[8],20.4 U/mg
same,Activity,[9],3.65 mmol
same,Activity,[10],16.2 U/mg
